Patent US12577231B2, “Androgen receptor PROTACS” (GlaxoSmithKline Intellectual Property Development Limited, priority 2023, dated 2026)
Substitutions are numbered along the chain they refer to.

How the values were obtained:
Androgen receptor W742L = molecular target: T1, Androgen receptor W742L (Homo sapiens, UniProt P10275, W742L); assay: Degradation of overexpressed Androgen Receptor in A549 cells (HiBiT), W742L; assay type: cell-based; settings: A549 cells overexpressing AR W742L, cycloheximide, 24 hours
T1 construct: expressed in transfected cells; host or cells: A549, transduced, puromycin selected
T1 sequence (P10275 1-920 W742L): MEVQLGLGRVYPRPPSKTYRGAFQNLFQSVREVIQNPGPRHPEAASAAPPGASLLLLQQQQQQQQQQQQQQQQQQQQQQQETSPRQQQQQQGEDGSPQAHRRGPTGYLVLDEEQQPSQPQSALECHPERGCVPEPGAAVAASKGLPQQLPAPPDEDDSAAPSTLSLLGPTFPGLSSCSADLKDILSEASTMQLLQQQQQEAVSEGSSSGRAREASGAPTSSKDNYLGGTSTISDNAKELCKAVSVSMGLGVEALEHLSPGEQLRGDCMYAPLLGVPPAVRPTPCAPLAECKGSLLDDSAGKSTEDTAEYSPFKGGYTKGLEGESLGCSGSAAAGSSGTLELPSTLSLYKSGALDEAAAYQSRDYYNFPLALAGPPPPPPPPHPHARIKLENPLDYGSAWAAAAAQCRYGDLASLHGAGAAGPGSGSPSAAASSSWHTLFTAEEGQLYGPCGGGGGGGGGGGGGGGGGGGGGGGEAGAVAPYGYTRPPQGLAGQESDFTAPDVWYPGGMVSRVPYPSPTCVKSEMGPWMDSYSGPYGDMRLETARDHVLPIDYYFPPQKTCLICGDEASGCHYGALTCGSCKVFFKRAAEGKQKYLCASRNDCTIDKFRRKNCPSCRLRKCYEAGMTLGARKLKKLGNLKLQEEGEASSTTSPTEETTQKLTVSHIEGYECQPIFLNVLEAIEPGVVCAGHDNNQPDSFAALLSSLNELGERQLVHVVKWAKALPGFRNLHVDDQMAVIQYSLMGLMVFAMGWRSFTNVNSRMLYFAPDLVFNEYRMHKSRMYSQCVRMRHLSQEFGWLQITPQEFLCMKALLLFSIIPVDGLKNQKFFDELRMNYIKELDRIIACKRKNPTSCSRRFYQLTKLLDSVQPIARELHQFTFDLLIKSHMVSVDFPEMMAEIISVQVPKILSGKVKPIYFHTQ
Method: (§1) A549 cells were transduced to express wild type androgen receptor and Androgen receptor containing the following mutations (L702H, H875Y W742C W742L F877L, T878A and T878A/H875Y) with HiBiT tags. Transduced cells following puromycin selection were maintained in a humidified incubator (at 37° C. and 5% CO2 in the DMEM medium supplemented with 1% (v/v) Pen/Strep, 1% (v/v) Glutamax and 10% (v/v) FBS. A549 cells expressing each AR construct were detached from plate and counted. Cell suspensions at density 0.2 million per mL were prepared. Cell suspension was supplemented with 100 μg/mL of cycloheximide to block protein synthesis. Cells were preincubated with cycloheximide for 1 hr before seeding. Cells were seeded onto 384-well plate at density of 5,000 in 25 μL per well. A two fold serial dilution of test compounds, starting from 1 μM (row A) in 2-fold serial dilution series across the column using Tecan D300e dispenser. […]
(§2) Nano-Glo HiBiT Lytic reagent was prepared by adding LgBiT protein and Nano-Glo® substrate to lytic buffer pre-equilibrated at room temperature following manufacturer protocol (https://www.promega.co.uk/resources/protocols/technical-manuals/101/nanoglo-luciferase-assay-system-protocol). […] The plates were then centrifuged (100×G, 1 min) and incubated on shaker for 10 mins before taking readings on Pherastar Luminescence microplate reader. […]

Androgen receptor T878A = molecular target: T2, Androgen receptor T878A (Homo sapiens, UniProt P10275, T878A); assay: Degradation of overexpressed Androgen Receptor in A549 cells (HiBiT), T878A; assay type: cell-based; settings: A549 cells overexpressing AR T878A, cycloheximide, 24 hours
T2 construct: expressed in transfected cells; host or cells: A549, transduced, puromycin selected
T2 sequence (P10275 1-920 T878A): T1 sequence (P10275 1-920 W742L) with L742W, T878A
Method: as §1, §2

In the case of `COc1cc(O[C@H]2C(C)(C)[C@H](NC(=O)c3ccc(N4CCC(CN5CCC(n6ncc7c(N8CCC(=O)NC8=O)nccc76)CC5)CC4)c(F)c3)C2(C)C)ccc1C#N` [Example 20, N-((1r,3r)-3-(4-Cyano-3-methoxyphenoxy)-2,2,4,4-tetramethylcyclobutyl)-4-(4-((4-(4-(2,4-dioxotetrahydropyrimidin-1(2H)-yl)-1H-pyrazolo[4,3-c]pyridin-1-yl)piperidin-1-yl)methyl)piperidin-1-yl)-3-fluorobenzamide], the “Summary pXC50” value (Androgen receptor W742L) is reported as 8.93 and the “Summary pXC50” value (Androgen receptor T878A) is reported as 8.81.
